Laboratory results: patent US6184252A, “2-amino-1,3-alkanediol compositions for inducing/stimulating hair growth and/or retarding hair loss” (priority 1996, dated 2001)
Like-named read-outs stand apart in the source and are kept apart here.

Assays:
Assay type in all cases: cell-based
[1] = tested on: HaCat cells (cultured keratinocytes); assay: Cell viability (mitochondrial respiration, XTT kit); conditions: for activation at 0.05 µM: Homo sapiens, HaCaT, read-out: increase in the number of cells with respect to the control (cell viability)
Protocol: Measurement of the Effect of 2-amino-1,3-octadecanediol and Derivatives Thereof on Cell Viability
HaCat cells were cultured as in Example 1.
(§1) These were then inoculated at a density of 20,000 cells per well in the 24 wells of plates of the multiwell type (Costar, France).
(§2) 24 hours after inoculation, the cells were contacted with the various test compounds in a KBM medium (marketed by Clonetics) containing insulin at 5 μg/ml and hydrocortisone at 0.5 μg/ml.
(§3) Cell viability was evaluated 48 hours later by measuring the mitochondrial respiration. This was carried out using an XTT kit, marketed by Boehringer, according to the supplier's instructions.
The compounds A, B and C of the above Example 1 were tested at a concentration of 50 nM, as well as a derivative based on sphingenine: N-palmitoylsphingenine marketeed by Sigma (C16H).

[2] = tested on: HaCat cells (keratinocytes); assay: Effect on the cell cycle (BrdU incorporation, entry into S phase); conditions: 50 nM; for activation at 0.05 µM: Homo sapiens, HaCaT, read-out: increase in the number of cells which have entered into the S phase with respect to the control
Protocol: Measurement of the Effect of 2-amino-1,3-octadecanediol and Derivatives Thereof on the Cell Cycle
HaCat cells were cultured as above.
as §1
24 hours after inoculation, the cells were contacted with the various test compounds in a KBM medium (marketed by Clonetics) containing insulin at 5 μg/ml and hydrocortisone at 0.5 μg/ml and 5-bromo-2'-deoxyuridine (BrdU) at 1 μM.
[…] This was carried out using a BrdU fast kit, marketed by Boehringer, according to the supplier's instructions.
The compounds A, B and C of the above example were tested at a concentration of 50 nM.
The results, expressed as percentage, represent the increase in the number of cells which have entered into the S phase with respect to the control, namely, with respect to a culture produced under the same conditions in the absence of alkanediol compounds.

hair follicle = assay: Survival of the hair follicle in vitro; conditions: Homo sapiens, read-out: percentage of surviving follicles
Protocol: Viable in vitro hair follicles were prepared according to the technique described in FR-95/08,465, filed Jul. 12, 1995 and assigned to the assignee hereof. From a scalp biopsy, a rather fine strip of scalp was isolated using a scalpel. The adipose tissue surrounding the follicles was removed with microforceps while avoiding damage to the hair bulb. The follicle was cut and removed with a scalpel under a microscope in order to separate it from its epidermal and dermal surroundings. The fragment obtained was maintained in culture in Williams E medium, at 37° C., in a humid atmosphere in the presence of CO2. The survival of the follicles was evaluated each day by counting the living follicles, according to their morphological appearance. The results are reported as percentage of surviving follicles per day. The experiment was carried out employing the following compounds at a concentration of 50 nM: in comparison with the culture medium without alkanediol (A).

[3] = tested on: HaCat cells (cultured keratinocytes); assay: Proliferative influence on cultured keratinocytes (cell counting with Coulter Counter); conditions: Homo sapiens, 120 h, 5 days, read-out: increase in the number of cells with respect to the control; for activation at 0.0005 µM: 0.5 nM; for activation at 0.005 µM: 5 nM; for activation at 0.05 µM: 50 nM; for activation at 0.5 µM: 500 nM
Protocol: Measurement of the Proliferative Influence of 2-amino-1,3-octadecanediol and Derivatives Thereof on Cultured Keratinocytes
HaCat cells (Boukamp and coworkers, J. Cell Biol., vol. 106, March 1988, 761-771) were cultured in DMEM medium (marketed by Gibco) containing amino acids (mixture of nonessential amino acids) at a concentration of 0.1 mM, penicillin and streptomycin at respective concentrations of 50 International Units per […] and of 50 μg/ml, glutamine at a concentration of 2 mM, sodium pyruvate at a concentration of 1 mM and 10% fetal calf serum. These cells were inoculated at a density of 10,000 cells per well in the 24 wells of plates of the multiwell type (Costar, France). 24 hours after inoculation, the cells were contacted with the various test compounds in a KBM medium (marketed by Clonetics) containing 0.15 mM of calcium ion, insulin at 5 μg/ml, hydrocortisone at 0.5 μg/ml and lipid-free bovine serum albumin at 1 μg/ml.
Cellular counting was carried out 5 days after the addition of the various ceramides using a cell counter of the Coulter Counter type.
The various compounds were tested at 0.5 nM, 5 nM, 50 nM and 500 nM.
The results, expressed as percentage, represent the increase in the number of cells with respect to the control, namely, with respect to a culture produced under the same conditions in the absence of sphinganine.

HaCat cells [4] = assay: Cell viability in the presence of doxorubicin (XTT kit); conditions: for increase in the number of cells with respect to the control (A): read at 48 hours
Protocol: Effect of 2-amino-1,3-octadecanediol and Derivatives Thereof on Cell Viability in the Presence of Doxorubicin
HaCat cells were cultured as in Example 2.
as §2
The cells were cultured in the presence of the 2-amino-1,3-octadecanediol to be tested until evaluation of cell viability.
Doxorubicin at a concentration of 1 μg/ml was added to the culture medium for 2 hours at the beginning of the experiment.
as §3
(§4) The experiment was carried out with the following compounds at a concentration of 50 nM:
in comparison with the culture medium without alkanediol and without doxorubicin (A) and with a medium containing only doxorubicin (B).
The results, expressed as percentage, represent the increase in the number of cells with respect to the control (A), namely, with respect to a culture produced under the same conditions in the absence of alkanediol compounds and of doxorubicin.

HaCat cells [5] = tested on: HaCat cells
Protocol: Effect of 2-amino-1,3-octadecanediol and Derivatives Thereof on Cell Viability in the Presence of a Compound Based on Sphingenine, N-acetylsphingenine
The cells were cultured as in Example 5. N-Acetylsphingenine was at a concentration of 10 μM.
as §4
in comparison with the culture medium without alkanediol and without N-acetylsphingenine (A) and with a medium containing only N-acetylsphingenine (B).
The results, expressed as percentage, represent the number of cells with respect to the control (A), namely, with respect to a culture produced under the same conditions in the absence of alkanediol compounds and of N-acetylsphingenine.

[6] = alkanediol 50 nM in presence of doxorubicin 1 μg/ml for 2 hours

Row | Structure (SMILES) | viability of the cultured keratinocytes (in words) ([1]; 50 nM, 48 hours) | number of keratinocytes which have entered into the S phase (in words) [2] | activation at 0.05 µM ([2]; 72 hours) [%] | activation at 0.05 µM ([2]; 96 hours) [%] | activation at 0.0005 µM [3] [%] | activation at 0.005 µM [3] [%] | activation at 0.05 µM [3] [%] | activation at 0.5 µM [3] [%] | increase in the number of cells with respect to the control (A) (HaCat cells [4]; [6]) | other results
1 | CCCCCCCCCCCCCCCC(O)C(N)CO (stereo not drawn) [A, 2-amino-1,3-octadecanediol] | increased the viability of the cultured keratinocytes | increase the number of keratinocytes which have entered into the S phase | 36 | 41 | 7 | 15 | 17 | 30 | +25% | activation at 0.05 µM ([1]; 50 nM, 48 hours): 17%; viability at 0.05 µM (hair follicle; 0 h, 50 nM, day 0): 100%; viability at 0.05 µM (hair follicle; 24 h, 50 nM, day 1): 100%; viability at 0.05 µM (hair follicle; 120 h, 50 nM, day 5): 90%; viability at 0.05 µM (hair follicle; 240 h, 50 nM, day 10): 20%; viability at 0.05 µM (hair follicle; 360 h, 50 nM, day 15): 0%; viability at 0.05 µM (hair follicle; 480 h, 50 nM, day 20): 0%; viability at 0.05 µM (hair follicle; 600 h, 50 nM, day 25): 0%
2 | CCCCCCCCCCCCCCCC(O)C(CO)NC(C)=O (stereo not drawn) [E, 2-acetylamino-1,3-octadecanediol] |  |  |  |  | 17 | 34 | 29 | 35 |  | 
3 | CCCCCCCCCCCCC/C=C/[C@@H](O)[C@H](CO)NC(=O)CCCCCCCCCCCCCCC [Compound C16H, N-palmitoylsphingenine, reference compound] | elicited a cytotoxic effect on the cultured cells |  |  |  |  |  |  |  |  | increase in the number of cells with respect to the control (cell viability) ([1]; 50 nM, 48 hours): -25%
4 | CCCCCCCC/C=C\CCCCCCCC(=O)NC(CO)C(O)CCCCCCCCCCCCCCC (stereo not drawn) [B, 2-oleoylamino-1,3-octadecanediol] | increased the viability of the cultured keratinocytes | increase the number of keratinocytes which have entered into the S phase | 43 | 51 | 17 | 24 | 23 | 14 | +28% | activation at 0.05 µM ([1]; 48 h): 23%; viability at 0.05 µM (hair follicle; 0 h): 100%; viability at 0.05 µM (hair follicle; 24 h): 100%; viability at 0.05 µM (hair follicle; 120 h): 100%; viability at 0.05 µM (hair follicle; 240 h): 78%; viability at 0.05 µM (hair follicle; 360 h): 33%; viability at 0.05 µM (hair follicle; 480 h): 0%; viability at 0.05 µM (hair follicle; 600 h): 0%
5 | CCCCCCCCCCCCCCCC(O)C(CO)NC(=O)C(O)CCCCCCCCCCCCCC (stereo not drawn) [C, 2-N-(2-hydroxyhexadecanoyl)amino-1,3-octadecanediol] | increased the viability of the cultured keratinocytes | increase the number of keratinocytes which have entered into the S phase | 17 | 43 | 26 | 36 | 42 | 22 | +23% | activation at 0.05 µM ([1]; 50 nM, 48 hours): 20%; viability at 0.05 µM (hair follicle; 0 h, 50 nM, day 0): 100%; viability at 0.05 µM (hair follicle; 24 h, 50 nM, day 1): 100%; viability at 0.05 µM (hair follicle; 120 h, 50 nM, day 5): 100%; viability at 0.05 µM (hair follicle; 240 h, 50 nM, day 10): 50%; viability at 0.05 µM (hair follicle; 360 h, 50 nM, day 15): 42%; viability at 0.05 µM (hair follicle; 480 h, 50 nM, day 20): 25%; viability at 0.05 µM (hair follicle; 600 h, 50 nM, day 25): 0%
6 | CCCCCCCCCCCCCCCC(O)C(CO)NC(=O)CCCCCCC (stereo not drawn) [F, 2-octanoylamino-1,3-octadecanediol] |  |  |  |  | 15 | 18 | 31 | 27 |  | 
7 | CCCCCCCCCCCCC/C=C/[C@@H](O)[C@H](CO)NC(C)=O [N-Acetylsphingenine] |  |  |  |  |  |  |  |  |  | cell viability in the presence of N-acetylsphingenine (in words) (HaCat cells [5]; N-acetylsphingenine 10 μM, alkanediol 50 nM): caused a decrease in cell viability; number of cells with respect to the control (A) (HaCat cells [5]; human, hacat cells, 48 h, 10 µM): 57%
8 | COc1cccc2c1C(=O)c1c(O)c3c(c(O)c1C2=O)C[C@@](O)(C(=O)CO)C[C@@H]3O[C@H]1C[C@H](N)[C@H](O)[C@H](C)O1 [Doxorubicin, reference compound] |  |  |  |  |  |  |  |  |  | cell viability in the presence of doxorubicin (in words) (HaCat cells [4]; doxorubicin 1 μg/ml for 2 hours, alkanediol 50 nM): caused a decrease in cell viability; increase in the number of cells with respect to the control (A) (HaCat cells [4]; only doxorubicin, 1 μg/ml for 2 hours): -20%
9 | CCCCCCCCCCCCCCCCCCCCCCCC(=O)NC(CO)C(O)CCCCCCCCCCCCCCC (stereo not drawn) [D, 2-tetracosanoylamino-1,3-octadecanediol] |  |  |  |  | 22 | 27 | 33 | 42 |  | 
